One molecule from patent US20250268859A1, “OXAFURAMINE, (1R)-N-ETHYL-1-[(2R)-OXOLAN-2-YL]-2-[…], HYDROCHLORIDE AND DERIVATIVES THEREOF FOR TREATING ALZHEIMER'S DISEASE (AD), […] […], […] WITH LEWY BODIES (DLB), MIXED […], FRON[…] DEGENERATION (FTLD), AND PARKINSON'S DISEASE (PD)” (NLS Pharmaceutics AG, priority 2021, published 2025) can be followed below.

Experiment [1] addresses T1, Relaxin-3 (RXFP3) (h) (Homo sapiens, UniProt Q9NSD7).
T1 sequence (Q9NSD7 1-469): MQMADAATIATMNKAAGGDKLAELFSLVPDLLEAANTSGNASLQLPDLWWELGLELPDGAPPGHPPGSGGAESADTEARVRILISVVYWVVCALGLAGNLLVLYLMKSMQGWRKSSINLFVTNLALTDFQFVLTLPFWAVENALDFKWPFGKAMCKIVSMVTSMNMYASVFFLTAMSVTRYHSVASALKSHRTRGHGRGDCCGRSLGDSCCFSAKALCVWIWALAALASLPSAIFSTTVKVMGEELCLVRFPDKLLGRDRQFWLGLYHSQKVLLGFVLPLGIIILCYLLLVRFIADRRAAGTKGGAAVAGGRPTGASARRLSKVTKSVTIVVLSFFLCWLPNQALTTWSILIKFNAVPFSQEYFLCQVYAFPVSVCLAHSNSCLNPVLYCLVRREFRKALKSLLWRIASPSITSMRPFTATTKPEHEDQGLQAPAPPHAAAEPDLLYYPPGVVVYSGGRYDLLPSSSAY
Briefly: Relaxin-3 (RXFP3) (h) (agonist radioligand). The experiment is classed as binding. How it is done: (§1) Oxafuramine is tested at 10^−5 M, calculated as a % inhibition of control specific binding of a radioactively labeled ligand specific for each target.
The results are expressed as a % control specific binding ([measured specific binding/control specific binding]×100) and as a % inhibition of control specific binding (100−[(measured specific binding/control specific binding)×100]) obtained in the presence of the test compounds.
Results showing an inhibition (or stimulation) lower than 25% are not considered significant and mostly attributable to variability of the signal around the control level. […]
• 1. cAMP Hunter cell lines were expanded from freezer stocks according to standard procedures. • 2. Cells were seeded in a total volume of 20 μL into white walled, 384-well microplates and incubated at 37° C. for the appropriate time prior to testing. • 3. cAMP modulation was determined using the DiscoverX HitHunter cAMP XS+ assay. […]
[formula] • 6. For Gi positive allosteric mode assays, percentage modulation is calculated using the following formula: % Modulation=100%×(1−(mean RLU of test sample−mean RLU of MAX control) /(mean RLU of EC20 control−mean RLU of MAX control)). • 7. […]

In experiment [2] the target is T2, DAT (h) (Homo sapiens, UniProt Q01959).
T2 construct: Eurofins (contract panel)
Put plainly: Radioligand binding panel, DAT (h) (antagonist radioligand). To be noted: % inhibition of control specific binding. How it is done:
as §1
This binding profile panel was broadly defined with roughly an equal number of selective, central and peripheral therapeutically relevant targets, including native animal tissues, radioligands and specific enzymes involved in cell cycle regulation in accordance with Eurofins Standard Operating Procedure (www.eurofins.fr).
For radioligand binding experiments, the half maximal inhibitory concentration (IC50) and the half maximal effective concentration (EC50) values were determined (via computer software) by nonlinear regression analysis of the competition curves using Hill equation curve fitting. The inhibition constants (Ki) were calculated using the Cheng-Prusoff equation (Ki=IC50/(1+(L/KD)), where L is the concentration of radioligand in the assay, and KD is the affinity of the radioligand for the receptor.
The results are expressed as a % control specific binding ([measured specific binding/control specific binding]×100) and as a % inhibition of control specific binding (100−[(measured specific binding/control specific binding)×100]) obtained in the presence of the test compounds. […]

T2 sequence (Q01959 whole entry): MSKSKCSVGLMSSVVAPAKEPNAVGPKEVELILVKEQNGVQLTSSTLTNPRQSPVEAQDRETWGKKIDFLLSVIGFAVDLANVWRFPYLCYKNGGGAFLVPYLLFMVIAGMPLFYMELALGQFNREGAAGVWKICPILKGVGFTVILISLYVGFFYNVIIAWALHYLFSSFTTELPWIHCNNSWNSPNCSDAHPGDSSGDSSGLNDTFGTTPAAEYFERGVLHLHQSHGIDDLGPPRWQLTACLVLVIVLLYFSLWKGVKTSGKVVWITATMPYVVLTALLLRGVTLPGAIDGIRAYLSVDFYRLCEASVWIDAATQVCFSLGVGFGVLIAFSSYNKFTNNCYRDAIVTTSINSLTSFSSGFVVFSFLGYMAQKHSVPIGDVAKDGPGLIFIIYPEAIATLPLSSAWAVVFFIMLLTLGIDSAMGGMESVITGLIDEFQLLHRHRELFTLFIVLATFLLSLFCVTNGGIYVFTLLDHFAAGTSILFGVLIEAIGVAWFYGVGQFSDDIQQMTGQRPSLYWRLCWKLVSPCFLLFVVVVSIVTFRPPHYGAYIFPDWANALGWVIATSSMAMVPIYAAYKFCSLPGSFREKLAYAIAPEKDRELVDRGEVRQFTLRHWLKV

Broadly, the inhibition is the percentage by which the read-out fell short of the control. Read a high inhibition as a response far below the control. Consider `CCN[C@H](Cc1ccccc1)[C@H]1CCCO1` [Oxafuramine, (1R)—N-ethyl-1-[(2R)-oxolan-2-yl]-2-phenylethanamine], for which, in experiment [1], the “% Inhibition at 10^−5M, Relaxin-3 (RXFP3) (h) (agonist radioligand)” value is reported as “weakly target”. Besides, the inhibition at 10 µM was 16.5% in experiment [1] (10^−5 M) and 94.1% in experiment [2] (10^−5 M). Besides, the “% Inhibition at 10^−5M, DAT (h) (antagonist radioligand)” value in experiment [2] is “appreciable potencies”.
